Experimental data as given in ChEMBL document CHEMBL1201862, “PubChem BioAssay data set” (2004).
Activity calls are given as the source filed them.

Key:
[1] = MC4R antagonists, dose response, counter-screen for LGR2 antagonist project, cell-based, plate reader, cherry pick (AID 743444); format: functional;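 note: transfected HEK 293 cells stimulated with alpha-MSH peptide; potency of inhibitors of the alpha-MSH evoked signal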
[2] = Luminescence Cell-Based Dose Confirmation HTS to Identify Inhibitors of Platelet Dense Granule Release. [Related pubchem assays: 1663 (Primary HTS), 1678 (Summary of Project)]; format: functional
[3] = Luminescence-based counterscreen assay for KLF5 inhibitors: dose response cell-based high throughput screening assay to identify cytotoxic compounds using the IEC-6 intestinal epithelial cell line. [Related pubchem assays: 1700 (Primary screen.), 1834 (Confirmation screen.), 1858 (Summary AID.), 1905 (Counterscreen.)]; format: functional
[4] = Luminescence Cell-Based Dose Response HTS to Identify Inhibitors of 5'UTR Stem-Loop Driven Prion Protein mRNA Translation in H4 Neuroglioblastoma Cells. [Related pubchem assays: 1827 (Project Summary), 1813 (Primary HTS)]; format: functional
[5] = molecular target: Luciferin 4-monooxygenase (Photinus pyralis, UniProt P08659); assay: firefly luciferase enzyme inhibitors, dose response, biochemical, luminescence (AID 1891)
Chain of Luciferin 4-monooxygenase (P08659 whole entry): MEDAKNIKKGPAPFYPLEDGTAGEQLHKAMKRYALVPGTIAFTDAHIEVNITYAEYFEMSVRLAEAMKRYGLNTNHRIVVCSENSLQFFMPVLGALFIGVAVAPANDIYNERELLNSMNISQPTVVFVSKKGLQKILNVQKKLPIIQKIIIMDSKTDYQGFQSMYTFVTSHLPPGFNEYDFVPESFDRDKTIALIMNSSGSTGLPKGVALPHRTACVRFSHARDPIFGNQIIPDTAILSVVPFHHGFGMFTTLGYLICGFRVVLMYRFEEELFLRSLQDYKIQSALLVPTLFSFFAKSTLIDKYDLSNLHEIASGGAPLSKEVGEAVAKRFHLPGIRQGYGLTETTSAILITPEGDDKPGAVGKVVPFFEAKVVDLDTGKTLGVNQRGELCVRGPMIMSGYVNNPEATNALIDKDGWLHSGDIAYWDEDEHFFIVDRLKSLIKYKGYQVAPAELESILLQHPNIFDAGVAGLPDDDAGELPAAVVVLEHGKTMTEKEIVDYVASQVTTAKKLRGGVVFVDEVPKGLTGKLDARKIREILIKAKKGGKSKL

[6] = LGR2 antagonists, dose response, cell-based, HEK293, CRE-luciferase reporter, cherry pick, set 2 (AID 743343); format: functional;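 note: transfected cells were stimulated with diluted bursicon conditioned medium after compound addition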
[7] = inhibitors of SNCA 5'UTR-driven reporter translation, confirmation, H4 neuroglioma cells, luminescence (AID 1988); format: functional, cell-based
[8] = HEK293 cell cytotoxicity, dose response, cytotoxicity control, plate reader, cherry-picked samples (AID 743446); format: functional, cell-based
[9] = molecular target: NS3 (Hepatitis C virus, UniProt A3EZJ3); assay: PubChem AID 2173; design: species or system Hepacivirus hominis
Chain of NS3 (A3EZJ3 whole entry): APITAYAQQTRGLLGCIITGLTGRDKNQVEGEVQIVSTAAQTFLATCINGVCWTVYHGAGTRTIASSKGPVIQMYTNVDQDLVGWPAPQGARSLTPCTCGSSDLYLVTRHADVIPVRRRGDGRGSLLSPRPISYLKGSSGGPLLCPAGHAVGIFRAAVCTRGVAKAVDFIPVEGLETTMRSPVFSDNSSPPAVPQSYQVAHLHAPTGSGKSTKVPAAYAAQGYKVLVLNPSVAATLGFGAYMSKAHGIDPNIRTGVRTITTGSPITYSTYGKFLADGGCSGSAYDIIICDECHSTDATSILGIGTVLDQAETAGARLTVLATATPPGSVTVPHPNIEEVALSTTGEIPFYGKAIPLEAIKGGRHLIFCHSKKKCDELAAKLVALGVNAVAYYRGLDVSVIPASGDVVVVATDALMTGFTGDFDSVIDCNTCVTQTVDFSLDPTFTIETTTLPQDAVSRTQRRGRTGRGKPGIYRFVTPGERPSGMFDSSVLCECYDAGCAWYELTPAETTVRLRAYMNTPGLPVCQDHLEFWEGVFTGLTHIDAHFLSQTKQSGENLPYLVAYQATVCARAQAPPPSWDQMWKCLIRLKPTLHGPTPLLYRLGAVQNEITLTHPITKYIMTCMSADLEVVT

[10] = molecular target: Protein-tyrosine kinase 2-beta (Homo sapiens, UniProt Q14289);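 note: potency of inhibitors of PYK2 kinase phosphorylation of poly-GT substrate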
Chain of Protein-tyrosine kinase 2-beta (Q14289 whole entry): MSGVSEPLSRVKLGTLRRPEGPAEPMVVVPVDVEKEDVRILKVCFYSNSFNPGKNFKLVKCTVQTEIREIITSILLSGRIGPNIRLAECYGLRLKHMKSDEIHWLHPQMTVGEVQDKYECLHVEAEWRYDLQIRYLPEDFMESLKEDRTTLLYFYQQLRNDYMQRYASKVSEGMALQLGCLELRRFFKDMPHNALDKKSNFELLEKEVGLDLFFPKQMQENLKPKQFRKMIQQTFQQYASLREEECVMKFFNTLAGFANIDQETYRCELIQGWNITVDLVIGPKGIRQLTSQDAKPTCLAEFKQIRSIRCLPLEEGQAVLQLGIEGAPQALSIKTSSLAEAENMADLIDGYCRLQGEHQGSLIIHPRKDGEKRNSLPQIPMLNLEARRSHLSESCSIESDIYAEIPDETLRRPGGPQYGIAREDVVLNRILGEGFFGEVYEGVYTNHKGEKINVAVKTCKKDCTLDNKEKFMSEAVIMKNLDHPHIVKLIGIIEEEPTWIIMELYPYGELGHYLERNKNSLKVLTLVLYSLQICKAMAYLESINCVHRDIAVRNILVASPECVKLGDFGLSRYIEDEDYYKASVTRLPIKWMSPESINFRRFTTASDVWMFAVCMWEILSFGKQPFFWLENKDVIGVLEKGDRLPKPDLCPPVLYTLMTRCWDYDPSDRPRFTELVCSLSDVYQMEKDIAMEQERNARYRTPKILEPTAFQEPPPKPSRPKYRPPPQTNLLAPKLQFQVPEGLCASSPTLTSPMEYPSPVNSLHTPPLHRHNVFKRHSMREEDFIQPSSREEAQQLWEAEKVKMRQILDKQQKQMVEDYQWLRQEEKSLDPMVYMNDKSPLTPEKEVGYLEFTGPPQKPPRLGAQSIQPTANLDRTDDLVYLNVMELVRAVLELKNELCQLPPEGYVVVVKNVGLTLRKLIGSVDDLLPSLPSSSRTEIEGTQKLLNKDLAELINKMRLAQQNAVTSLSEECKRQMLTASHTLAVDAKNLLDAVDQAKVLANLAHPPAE

[11] = inhibitors of Bluetongue virus cytopathic effect, confirmation, arbovirus, BSR cells (AID 1250); format: functional;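 note: protection from viral cytopathic effect measured as cell viability by ATP luminescence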
[12] = molecular target: Dual specificity tyrosine-phosphorylation-regulated kinase 1A (Rattus norvegicus, UniProt Q63470); format: biochemical, Homo sapiens
[13] = HepG2 cell cytotoxicity, dose response, cytotoxicity control, plate reader, cherry-pick, antagonist series (AID 743416); format: functional, cell-based
[14] = A549 cell cytotoxicity, dose response, cytotoxicity control, plate reader, cherry-pick, antagonist series (AID 743412); format: functional, cell-based
[15] = molecular target: Aryl hydrocarbon receptor (Homo sapiens, UniProt P35869); assay: Luminescence-based cell-based high throughput dose response assay for activators of the Aryl Hydrocarbon Receptor (AHR). [Related pubchem assays: 2796 (Primary screen (AHR activators in singlicate)), 2845 (Confirmation screen (AHR activators in triplicate)), 434939 (Counterscreen (PXR activators in triplicate)), 2804 (Summary (AHR activators))]; format: ADME
Chain of Aryl hydrocarbon receptor (P35869 whole entry): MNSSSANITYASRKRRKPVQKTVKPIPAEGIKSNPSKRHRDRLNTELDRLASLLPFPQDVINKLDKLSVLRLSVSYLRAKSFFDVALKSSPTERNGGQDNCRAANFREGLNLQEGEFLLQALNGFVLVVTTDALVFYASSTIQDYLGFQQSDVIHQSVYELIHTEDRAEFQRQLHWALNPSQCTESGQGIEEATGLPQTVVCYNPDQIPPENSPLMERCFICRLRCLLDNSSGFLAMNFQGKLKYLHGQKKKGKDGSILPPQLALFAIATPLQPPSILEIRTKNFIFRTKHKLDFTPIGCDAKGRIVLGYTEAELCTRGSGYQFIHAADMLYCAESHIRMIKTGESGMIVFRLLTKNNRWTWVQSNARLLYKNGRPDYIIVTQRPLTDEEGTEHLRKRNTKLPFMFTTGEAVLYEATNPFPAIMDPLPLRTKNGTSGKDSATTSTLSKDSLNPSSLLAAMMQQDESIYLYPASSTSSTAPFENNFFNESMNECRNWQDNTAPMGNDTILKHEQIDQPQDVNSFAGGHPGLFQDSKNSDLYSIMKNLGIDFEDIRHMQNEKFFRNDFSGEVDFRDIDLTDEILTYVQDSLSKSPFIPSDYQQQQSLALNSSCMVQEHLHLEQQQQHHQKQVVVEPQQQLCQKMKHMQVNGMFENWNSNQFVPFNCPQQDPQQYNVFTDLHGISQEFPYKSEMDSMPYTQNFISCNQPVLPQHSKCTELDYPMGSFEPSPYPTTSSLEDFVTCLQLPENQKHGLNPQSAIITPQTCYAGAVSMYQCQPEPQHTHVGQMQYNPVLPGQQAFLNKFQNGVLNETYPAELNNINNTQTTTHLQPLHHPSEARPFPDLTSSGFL

[16] = molecular target: T1, Low molecular weight phosphotyrosine protein phosphatase (Homo sapiens, UniProt P24666); format: functional; details: read-out: IC50_Mean
T1 sequence (P24666 whole entry): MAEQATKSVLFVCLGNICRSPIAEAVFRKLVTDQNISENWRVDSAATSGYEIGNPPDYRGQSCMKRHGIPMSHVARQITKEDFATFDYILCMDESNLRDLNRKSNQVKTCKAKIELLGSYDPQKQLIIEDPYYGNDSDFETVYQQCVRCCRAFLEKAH

[17] = molecular target: T1, Low molecular weight phosphotyrosine protein phosphatase; format: functional; details: read-out: IC50_Mean; remark: listed apart in the source
[18] = molecular target: T2, Heat shock factor protein 1 (Mus musculus, UniProt P38532); assay: inhibition of MG132-induced HSE-luciferase signal, confirmation, cell-based, NIH3T3, luminescence, dose retest (AID 2382); format: functional;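 note: NIH3T3 fibroblasts with HSF1-driven luciferase reporter stressed by proteasome inhibitor MG132; luminescence from HSF1-driven luciferase expression after 8 hours of MG132 stress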
T2 sequence (P38532 whole entry): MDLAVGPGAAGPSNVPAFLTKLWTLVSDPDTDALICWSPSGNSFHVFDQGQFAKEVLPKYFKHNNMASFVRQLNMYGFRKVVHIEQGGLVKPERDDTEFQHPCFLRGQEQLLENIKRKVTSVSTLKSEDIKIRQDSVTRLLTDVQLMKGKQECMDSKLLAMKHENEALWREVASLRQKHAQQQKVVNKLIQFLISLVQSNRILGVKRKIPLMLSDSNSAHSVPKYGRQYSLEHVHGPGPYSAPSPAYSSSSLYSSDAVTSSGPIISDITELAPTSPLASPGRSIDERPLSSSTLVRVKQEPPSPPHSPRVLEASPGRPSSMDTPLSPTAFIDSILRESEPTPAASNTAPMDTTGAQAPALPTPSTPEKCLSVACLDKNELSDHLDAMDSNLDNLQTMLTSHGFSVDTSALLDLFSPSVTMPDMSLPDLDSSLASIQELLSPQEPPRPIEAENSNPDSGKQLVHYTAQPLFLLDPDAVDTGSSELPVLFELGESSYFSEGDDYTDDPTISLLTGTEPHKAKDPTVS

[19] = molecular target: T3, Coagulation factor XII (Homo sapiens, UniProt P00748); format: functional;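 note: activated factor XIIa alpha cleaving a fluorogenic AMC peptide substrate; inhibitor potency from loss of enzyme activity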
T3 sequence (P00748 whole entry): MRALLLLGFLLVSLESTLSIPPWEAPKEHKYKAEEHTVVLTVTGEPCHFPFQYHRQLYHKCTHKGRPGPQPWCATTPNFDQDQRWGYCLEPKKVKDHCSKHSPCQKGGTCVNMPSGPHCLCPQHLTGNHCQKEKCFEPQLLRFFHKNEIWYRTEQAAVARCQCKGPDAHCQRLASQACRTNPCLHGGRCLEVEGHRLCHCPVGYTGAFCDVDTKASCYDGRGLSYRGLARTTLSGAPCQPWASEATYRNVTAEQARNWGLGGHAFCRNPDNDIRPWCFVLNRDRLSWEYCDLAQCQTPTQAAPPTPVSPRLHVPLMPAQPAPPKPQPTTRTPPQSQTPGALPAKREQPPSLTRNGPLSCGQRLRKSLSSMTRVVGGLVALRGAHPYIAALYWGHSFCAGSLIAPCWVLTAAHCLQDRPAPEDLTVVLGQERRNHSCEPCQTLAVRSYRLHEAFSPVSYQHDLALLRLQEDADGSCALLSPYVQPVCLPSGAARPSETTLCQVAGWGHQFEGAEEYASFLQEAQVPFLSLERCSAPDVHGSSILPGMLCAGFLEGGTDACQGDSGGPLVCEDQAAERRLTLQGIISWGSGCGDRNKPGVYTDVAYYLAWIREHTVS

[20] = molecular target: Large T antigen (Simian virus 40, UniProt P03070); format: functional, Betapolyomavirus macacae;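 note: Confirmatory-stage PubChem screen for compounds that inhibit SV40 T antigen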
[21] = Luminescence Cell-Based Dose Confirmation HTS to Identify Inhibitors of Polyadenylation.; format: functional
[22] = molecular target: Epstein-Barr nuclear antigen 1 (Epstein-Barr virus (strain B95-8) (HHV-4) (Human herpesvirus 4), UniProt P03211); assay: EBNA-1 inhibitors, dose response, biochemical, fluorescence polarization, 1536-well (AID 2381); design: species or system human gammaherpesvirus 4;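 note: fluorescence polarization of a Cy5 DNA probe bound by EBNA-1 protein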
Chain of Epstein-Barr nuclear antigen 1 (P03211 whole entry): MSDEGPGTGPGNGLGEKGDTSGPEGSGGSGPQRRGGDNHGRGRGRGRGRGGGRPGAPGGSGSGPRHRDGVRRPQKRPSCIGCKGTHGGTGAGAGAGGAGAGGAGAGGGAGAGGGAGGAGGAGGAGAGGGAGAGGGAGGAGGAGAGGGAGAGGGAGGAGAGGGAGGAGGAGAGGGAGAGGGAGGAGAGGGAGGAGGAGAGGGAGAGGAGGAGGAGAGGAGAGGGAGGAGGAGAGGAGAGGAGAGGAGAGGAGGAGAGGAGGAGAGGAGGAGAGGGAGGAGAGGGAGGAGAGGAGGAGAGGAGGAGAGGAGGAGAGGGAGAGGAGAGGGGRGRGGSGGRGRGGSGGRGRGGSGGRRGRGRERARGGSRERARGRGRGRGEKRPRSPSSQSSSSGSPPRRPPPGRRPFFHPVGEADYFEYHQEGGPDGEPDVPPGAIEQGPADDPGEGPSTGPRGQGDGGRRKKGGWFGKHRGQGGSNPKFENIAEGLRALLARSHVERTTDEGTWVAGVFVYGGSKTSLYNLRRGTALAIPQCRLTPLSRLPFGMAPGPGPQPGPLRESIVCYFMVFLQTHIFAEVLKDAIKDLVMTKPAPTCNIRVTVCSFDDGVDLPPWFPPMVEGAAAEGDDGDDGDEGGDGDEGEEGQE

[23] = molecular target: Lytic switch protein BZLF1 (Epstein-Barr virus (strain B95-8) (HHV-4) (Human herpesvirus 4), UniProt P03206); assay: EBV ZTA inhibitors, dose response, counter-screen for EBNA-1 inhibitor project, biochemical, fluorescence polarization, Epstein-Barr virus, 1536-well (AID 2377); design: species or system human gammaherpesvirus 4;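 note: fluorescence polarization of Cy5-labelled ZRE DNA probe bound by purified Zta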
Chain of Lytic switch protein BZLF1 (P03206 whole entry): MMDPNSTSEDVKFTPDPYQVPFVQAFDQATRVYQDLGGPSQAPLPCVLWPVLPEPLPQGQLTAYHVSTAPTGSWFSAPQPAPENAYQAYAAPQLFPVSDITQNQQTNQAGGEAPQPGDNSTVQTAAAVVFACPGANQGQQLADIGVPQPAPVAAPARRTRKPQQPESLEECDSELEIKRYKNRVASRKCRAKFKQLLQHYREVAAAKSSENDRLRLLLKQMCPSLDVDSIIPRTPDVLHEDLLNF

[24] = molecular target: T4, Bcl-2-related protein A1 (Mus musculus, UniProt Q07440); assay: Bfl-1 inhibitors blocking BH3 peptide binding, confirmation, biochemical, TR-FRET, mouse Bfl-1 (AID 621);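 note: TR-FRET binding of GST-Bfl-1 to FITC-labelled Bid peptide via terbium antibody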
T4 sequence (Q07440 whole entry): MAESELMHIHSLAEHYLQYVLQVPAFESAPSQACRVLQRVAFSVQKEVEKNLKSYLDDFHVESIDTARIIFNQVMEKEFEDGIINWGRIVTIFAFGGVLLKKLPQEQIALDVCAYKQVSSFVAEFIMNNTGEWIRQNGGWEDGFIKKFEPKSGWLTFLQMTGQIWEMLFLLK

[25] = molecular target: Glyceraldehyde-3-phosphate dehydrogenase (Homo sapiens, UniProt P04406)
Chain of Glyceraldehyde-3-phosphate dehydrogenase (P04406 whole entry): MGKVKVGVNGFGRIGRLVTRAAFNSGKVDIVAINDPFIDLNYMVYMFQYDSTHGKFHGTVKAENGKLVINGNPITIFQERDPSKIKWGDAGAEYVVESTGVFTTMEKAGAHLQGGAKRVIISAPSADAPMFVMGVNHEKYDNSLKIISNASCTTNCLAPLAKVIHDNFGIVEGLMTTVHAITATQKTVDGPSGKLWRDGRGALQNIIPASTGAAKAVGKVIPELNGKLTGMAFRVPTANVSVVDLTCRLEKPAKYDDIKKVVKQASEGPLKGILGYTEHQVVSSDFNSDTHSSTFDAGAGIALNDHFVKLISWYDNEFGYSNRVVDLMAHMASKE

[26] = molecular target: T4, Bcl-2-related protein A1; assay: Bfl-1 binding inhibitors, SAR follow-up, biochemical, fluorescence polarization (AID 1070)
[27] = inhibitors of firefly luciferase expression or activity, dose response, H4 neuroglioma cells, luminescence (AID 1990); format: functional, cell-based
[28] = luciferase reporter signal reduction – luminescence, H4-C neuroglioblastoma cells, dose response (AID 2458); format: functional, cell-based;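 note: H4 neuroglioblastoma cells stably carrying a luciferase reporter gene fusion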
[29] = tested on: Streptococcus sp. 'group A'; assay: growth inhibition of control SK(-) GAS strain, dose response, counter-screen for streptokinase expression inhibitor project, luminescence, kanamycin, BacTiterGlo, confirmation (AID 1900); format: functional, organism-based
[30] = inhibitors of SNCA 5'UTR-driven translation, confirmation, luminescence, H4 neuroglioblastoma cells, dose confirmation (AID 2454); format: functional, cell-based;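 note: H4 neuroglioblastoma cells carrying an alpha-synuclein 5'UTR luciferase reporter; potency for inhibition of the luciferase signal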
[31] = cells; format: functional, cell-based
[32] = tested on: Streptococcus; assay: Group A Streptococcus viability loss, dose response, counter-screen for streptokinase expression inhibitor project, luminescence, BacTiterGlo (AID 1915); format: functional, organism-based;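 note: potency for reduction of bacterial viability or growth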
[33] = molecular target: Neuropeptide Y receptor type 2 (Homo sapiens, UniProt P49146); assay: Fluorescence-based cell-based high-throughput dose response assay for agonists of NPY-Y2. [Related pubchem assays: 1703 (Screening assay (CNGC inhibitors).), 1359 (Screening assay (NPY-Y2 potentiators or agonists).), 1304 (Screening assay (NPY-Y1 potentiators or agonists).), 1710 (Screening assay (NPY-Y2 agonists).), 1791 (Summary AID.)]; format: functional
Chain of Neuropeptide Y receptor type 2 (P49146 whole entry): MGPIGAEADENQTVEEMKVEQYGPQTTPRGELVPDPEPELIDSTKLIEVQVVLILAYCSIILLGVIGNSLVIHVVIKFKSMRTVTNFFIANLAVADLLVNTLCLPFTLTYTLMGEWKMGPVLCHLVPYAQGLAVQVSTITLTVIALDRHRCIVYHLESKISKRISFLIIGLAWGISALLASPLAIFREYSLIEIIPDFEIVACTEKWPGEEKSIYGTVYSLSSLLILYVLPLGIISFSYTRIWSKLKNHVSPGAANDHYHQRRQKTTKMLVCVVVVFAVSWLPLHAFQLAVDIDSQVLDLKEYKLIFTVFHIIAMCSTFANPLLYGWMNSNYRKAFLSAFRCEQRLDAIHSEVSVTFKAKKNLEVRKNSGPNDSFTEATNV

[34] = molecular target: Neuropeptide Y receptor type 1 (Homo sapiens, UniProt P25929); assay: Fluorescence-based counterscreen for agonists of NPY-Y2: cell-based high-throughput dose response assay for agonists of NPY-Y1.; format: functional
Chain of Neuropeptide Y receptor type 1 (P25929 whole entry): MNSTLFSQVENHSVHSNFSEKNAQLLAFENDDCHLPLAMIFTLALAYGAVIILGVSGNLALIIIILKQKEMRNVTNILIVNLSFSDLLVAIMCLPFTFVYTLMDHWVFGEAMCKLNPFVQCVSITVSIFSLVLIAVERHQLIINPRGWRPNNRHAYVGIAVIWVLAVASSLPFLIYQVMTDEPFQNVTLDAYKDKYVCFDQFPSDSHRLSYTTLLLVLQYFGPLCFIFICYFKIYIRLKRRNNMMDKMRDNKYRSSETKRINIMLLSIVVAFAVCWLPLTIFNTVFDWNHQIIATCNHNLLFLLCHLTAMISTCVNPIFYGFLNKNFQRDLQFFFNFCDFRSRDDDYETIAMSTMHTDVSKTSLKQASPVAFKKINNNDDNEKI

[35] = tested on: HEK293; assay: Fluorescence-based counterscreen for potentiators or agonists of NPY-Y2: cell-based high-throughput dose response assay to identify inhibitors of cyclic nucleotide gated ion channel (CNGC) activity. In this assay, the parental HEK293 cell line transfected with a cyclic-nucleotide gated ion channel (CNGC)-based cAMP sensor is used to measure inhibition of isoproterenol-induced CNGC activity by test compound.; format: functional; details: Homo sapiens;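 note: stimulus is 1 µM isoproterenol at EC100 plus PDE inhibitor Ro 20-1724 at 25 µM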
[36] = molecular target: T5, Protein skinhead-1 (Caenorhabditis elegans, UniProt P34707); format: functional
T5 sequence (P34707 whole entry): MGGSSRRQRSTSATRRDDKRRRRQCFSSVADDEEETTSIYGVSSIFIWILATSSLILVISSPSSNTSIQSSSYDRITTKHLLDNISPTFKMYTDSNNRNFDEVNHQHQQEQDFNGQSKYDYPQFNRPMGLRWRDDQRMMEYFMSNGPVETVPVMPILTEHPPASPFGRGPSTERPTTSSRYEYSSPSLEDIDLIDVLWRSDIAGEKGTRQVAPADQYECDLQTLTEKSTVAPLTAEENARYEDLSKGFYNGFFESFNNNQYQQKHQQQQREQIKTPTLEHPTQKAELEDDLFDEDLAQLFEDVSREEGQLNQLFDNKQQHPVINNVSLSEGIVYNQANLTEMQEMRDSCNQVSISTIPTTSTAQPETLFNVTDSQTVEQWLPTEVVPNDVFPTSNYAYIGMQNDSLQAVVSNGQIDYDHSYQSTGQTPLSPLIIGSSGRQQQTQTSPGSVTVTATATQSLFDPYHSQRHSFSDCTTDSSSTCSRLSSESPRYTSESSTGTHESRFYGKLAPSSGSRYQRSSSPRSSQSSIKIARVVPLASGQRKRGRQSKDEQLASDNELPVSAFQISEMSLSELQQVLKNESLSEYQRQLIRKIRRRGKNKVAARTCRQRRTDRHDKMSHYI

O=C(Nc1cccc(O)c1)c1cc(-c2ccc3c(c2)OCO3)on1
AC50 [1]: 5.8 µM (active)
EC50 [2]: 1.71 µM (active)
IC50 [3]: > 39.8 µM (not active)
EC50 [4]: > 120 µM (not active)
EC50 [5]: 0.349 µM (active)
AC50 [6]: 4.08 µM (active)
EC50 [7]: 5.97 µM (active)
AC50 [8]: 6.57 µM (active)

CC(Oc1ccccc1)C(=O)Nc1oc(-c2ccco2)c(-c2ccco2)c1C#N (centres undefined)
IC50 [9]: 16.7 µM (not active)

c1ccc(-c2nccc(-c3ccc(-n4cnc5ccccc54)cc3)n2)cc1
IC50 [10]: 2.64 µM (active)

N#Cc1c(C(F)(F)F)cc(-c2cccc(Cl)c2)nc1O
IC50 [11]: 42.9 µM (active)
AC50 [12]: 7.04 µM (active)

CN1CCN(c2ccc(NC(=O)c3sc4ccccc4c3Cl)cc2)CC1
AC50 [1]: 7.85 µM (active)
AC50 [13]: 25.5 µM (active)
AC50 [6]: 2.49 µM (active)
AC50 [14]: 22 µM (active)
EC50 [15]: > 0.377 µM (active)

CCCCOc1ccc(C2C(C(=O)c3ccc(C)o3)=C(O)C(=O)N2Cc2ccco2)cc1 (centres undefined)
IC50 [9]: 3.26 µM (active)
IC50 [16]: 54.5 µM (inactive)
IC50 [17]: > 80 µM (inactive)
EC50 [18]: 46.6 µM (active)

O=C(O)CN1C(=O)/C(=C/c2ccc(N3CCCCC3)o2)SC1=S
IC50 [19]: > 50 µM (inactive)
IC50 [20]: 31.7 µM (active)
EC50 [21]: 10.6 µM (active)

COc1cccc(N2CCN(S(=O)(=O)c3ccc(-c4cnc(C5CC5)o4)cc3)CC2)c1
IC50 [22]: 6.91 µM (active)
IC50 [23]: > 111 µM (not active)

O=C1C(Cl)=C(Cl)C(=O)N1c1cccc(Cl)c1
IC50 [24]: 5.17 µM (active)
IC50 [25]: > 100 µM (not active)
IC50 [26]: 3.41 µM (active)

COc1ccc(C2CC(C(F)(F)F)n3nc(C(=O)Nc4ccc5c(c4)OCO5)cc3N2)cc1 (centres undefined)
IC50 [22]: 9.48 µM (active)
IC50 [19]: > 50 µM (inactive)
IC50 [23]: > 111 µM (not active)

CCc1ccc2c(c1)C1(NN=C(c3cccc4ccccc34)S1)C(=O)N2 (centres undefined)
EC50 [27]: 38.5 µM (active)
EC50 [28]: 1.25 µM (active)
EC50 [4]: < 0.1 µM (active)
EC50 [29]: < 0.06 µM (active)
EC50 [30]: 2.85 µM (inconclusive)
EC50 [31]: 0.875 µM (active)
EC50 [7]: < 0.1 µM (active)
EC50 [32]: 0.706 µM (active)

CCSc1nnc(NC(=O)CCNS(=O)(=O)c2cc(Br)cnc2N)s1
EC50 [33]: 13.7 µM (not active)
EC50 [34]: 11.7 µM (not active)
EC50 [35]: 9.32 µM (active)

CC(C)CC(NC(=O)c1ccc(Cl)cc1)C(=O)OCc1cc([N+](=O)[O-])cc2c1OCOC2 (centres undefined)
EC50 [33]: > 35.4 µM (not active)
EC50 [34]: > 35.4 µM (not active)
EC50 [35]: > 35.4 µM (not active)

Clc1ccc(-n2nnc(-c3cccnc3)n2)cc1Cl
IC50 [36]: 57.3 µM (inactive)
IC50 [24]: > 100 µM (not active)
IC50 [26]: > 100 µM (not active)
